Test results: patent US6379652B1, “Oral compositions for reducing mouth odors” (Colgate Palmolive Company, priority 2000, dated 2002)

System: F. nucleatum
Experiment: MIC assay for bactericidal activity (microtiter format)
Format: cell-based
Parameters: MIC Value: unit not given here
Settings: for MIC Value: individual flavors, 1% by weight solution in ethanol, F. nucleatum, lower = more effective; for bactericidal activity against F. nucleatum (in words): summary of Table I
Experimental: A 1% by weight solution in ethanol of a series of individual essential oil flavors were prepared and evaluated in an MIC assay for bactericidal activity against F. nucleatum. The bacterial strain F. nucleatum is implicated in the occurrence of oral malodor.
The bacterial strains of F. nucleatum were grown […] in thioglycolate broth for 48 hours at 37° C. The optical density at 610 nm was adjusted to between 0.1 to 0.2 prior the MIC determination.
MIC determinations were performed using the microtiter format according to standard procedures (Manual of clinical Microbiology, 1995).
The procedure of Example 1 was repeated except combinations of various flavor compounds were evaluated for antibacterial efficacy via the MIC assay.

| SMILES | MIC Value | bactericidal activity against F. nucleatum (in words) |
| --- | --- | --- |
| O=C/C=C/c1ccccc1 [Cinnamic aldehyde] | 125 | good bactericidal activity |
| CC=Cc1ccc(OC)cc1 [Anethol] | 500 |  |
| Cc1ccc(C(C)C)c(O)c1 [Thymol] | 125 | good bactericidal activity |
| C=CCc1ccc(O)c(OC)c1 [Eugenol] | 250 | good bactericidal activity |
| CC12CCC(CC1)C(C)(C)O2 [Eucalyptol] | 500 |  |
| CC(C)[C@@H]1CC[C@@H](C)C[C@H]1O [L-menthol] | 500 |  |
